{"source": "patent US7713548B2", "about": "“Amorphous solid dispersions” (sanofi-aventis U.S. LLC, priority 2005, dated 2010)", "key": {"[1]": {"test_system": "animal models of rheumatoid arthritis", "assay": "Animal models of rheumatoid arthritis", "type": "in vivo", "settings": "by modulating the immune response"}, "[2]": {"assay": "Physical stability of amorphous pure drug substance", "type": "physicochemical", "settings": "amorphous forms of the pure drug substance; crystallized over time"}, "[3]": {"target": "peripheral-type benzodiazepine receptors (Homo sapiens, UniProt P30536)", "sequence (P30536 whole entry)": "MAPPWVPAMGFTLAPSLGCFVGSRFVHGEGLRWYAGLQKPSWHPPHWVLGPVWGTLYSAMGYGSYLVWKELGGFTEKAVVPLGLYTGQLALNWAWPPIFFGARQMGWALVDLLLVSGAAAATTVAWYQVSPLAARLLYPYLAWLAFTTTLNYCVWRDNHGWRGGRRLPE", "settings": "described in U.S. Pat. No. 6,262,045 and 6,395,729; cited from earlier work"}}, "data": [{"smiles": "CN(C)C(=O)Cc1nn(-c2ccccc2)c(=O)c2c1c1ccc(Cl)cc1n2C", "note": "[7-chloro-N,N,5-trimethyl-4-oxo-3-phenyl-3,5-dihydro-4H-pyridazino[4,5-b]indole-1-acetamide]", "values": [{"measurement": "pharmacological activity in animal models of rheumatoid arthritis", "setting": "[1]", "value": "has shown pharmacological activity"}, {"measurement": "physical stability", "setting": "[2]", "value": "limited physical stability"}, {"measurement": "affinity for the peripheral-type benzodiazepine receptors", "setting": "[3]", "value": "high affinity"}]}]}
